The values below come from the Deep4Chem optical property database.

Where “and” joins values, the source holds several entries; their conditions need not be identical. Identical values can stand only once.

The nature of this data set: solvent given as SMILES.

Consider `CCCC(=O)c1c2c(c(C(=O)CCC)c3c1OC(CC(=O)OC)(C(=O)OC)O3)OCO2`, for which the fluorescence lifetime came out at 22.5 ns (in CC#N); 18.5 ns (in CCCCCC); 17.7 ns (in CCO); 11.9 ns (in CO); 25.1 ns (in ClCCl).
Consider `F[B-]1(F)n2c(-c3cccs3)cc(-c3cccs3)c2N=C2C(c3cccs3)=CC(c3cccs3)=[N+]21`, for which the fluorescence lifetime reads like this: (in C1CCOC1) 1.95 ns; (in CC#N) 2.23 ns; (in CS(C)=O) 2.31 ns; (in Cc1ccccc1) 2.21 ns; (in ClCCl) 2.36 ns.
Where the note is “in ClCCl”, `c1ccc(N(c2ccccc2)c2ccc(-c3ccc4c(c3)C3(c5cc(-c6ccc(N(c7ccccc7)c7ccccc7)cc6)ccc5-4)c4ccccc4N(c4ccccc4)c4ccccc43)cc2)cc1` registered a fluorescence lifetime of 1.2 ns.
Consider `c1ccc(-c2cc(-c3ccc(-c4nc(-c5ccccn5)c(-c5ccccn5)[nH]4)cc3)cc(-c3ccccn3)n2)nc1`, for which the fluorescence lifetime (in C1CCOC1) was determined as 1.46 ns; the fluorescence lifetime (in CC#N) was 1.44 ns; the fluorescence lifetime (in CC(C)=O) was 1.09 ns; the fluorescence lifetime (in CCCCCC) was found to be 0.065 ns; the fluorescence lifetime (in CCO) was found to be 2.04 ns; the fluorescence lifetime (in CCOC(C)=O) was 1.18 ns. The fluorescence lifetime was 1.91 ns (in CN(C)C=O); 1.41 ns (in CO); 2.04 ns (in CS(C)=O); 1.19 ns (in ClC(Cl)Cl); 3.43 ns (in ClCCl); 2.39 ns (in O).
On to `CC(C)c1cc(C(C)C)c(B2c3ccccc3Oc3cc(-n4c5ccccc5c5c6c(c7ccccc7n6-c6ccccc6)c6c(c7ccccc7n6-c6ccccc6)c54)ccc32)c(C(C)C)c1`, for which the fluorescence lifetime runs as follows: (in CC(C)c1cc(C(C)C)c(-c2ccc(-n3c4ccccc4n4c5ccccc5nc34)nc2)c(C(C)C)c1) 23.1 ns; (in O=P(c1ccccc1)(c1ccccc1)c1ccccc1Oc1ccccc1P(=O)(c1ccccc1)c1ccccc1) 24.7 ns.
`c1ccc(-c2nc(-c3ccccc3)c(-c3ccccc3)o2)cc1` yielded a fluorescence lifetime (in Cc1ccccc1) of 1.27 ns.
For `CCOC(=O)/N=c1/oc2ccc(OC)cc2cc1C#N`, for the setting “in ClCCl”, the fluorescence lifetime is 0.3 ns.
On to `O=C(c1ccc(N2c3ccccc3Oc3ccccc32)cc1)c1cccc(C(=O)c2ccc(N3c4ccccc4Oc4ccccc43)cc2)c1`, for which the fluorescence lifetime (in c1cc(-c2cccc(-n3c4ccccc4c4ccccc43)c2)cc(-n2c3ccccc3c3ccccc32)c1) is 24 ns.
On to `CC(C)[Si]1(C(C)C)c2cc(N(C)C)ccc2-c2ccc(C(F)(F)F)cc21`, for which the fluorescence lifetime amounted to 3.3 ns (in C1CCCCC1) and 2.5 ns (in ClCCl).
Molecule `Cc1cc(C2=C(c3c(C)sc(-c4ccc(-c5nc(-c6ccccc6)c(-c6ccccc6)[nH]5)cc4)c3C)C(F)(F)C(F)(F)C2(F)F)c(C)s1` gave a fluorescence lifetime (in C1CCOC1) of 0.54 ns.
Regarding `CC1(C)c2ccccc2N(c2ccc(-c3cc(-c4ccccc4)nc(-c4ccccc4)n3)cc2)c2ccccc21`, the fluorescence lifetime runs as follows: (in Cc1ccccc1) 4.23 ns; (in ClCCl) 25 ns.
Take `Cc1cc(-c2nnc(-c3c(C(C)C)cc(C(C)C)cc3C(C)C)o2)ccc1-n1c2ccccc2c2ccccc21`: where the note is “in CCO”, the fluorescence lifetime came out at 1.49 ns.
For the setting “in Cc1ccccc1”, `CC1(C)OB(c2cc3ccc4cccc5ccc(c2)c3c45)OC1(C)C` yielded a fluorescence lifetime of 82 ns.
In the case of `CC(C)c1ccc2ccc3cccc4ccc1c2c34`, the fluorescence lifetime reads like this: (in CCCCCC) 50.6 ns; (in CO) 149 ns; (in ClCCl) 77.8 ns.
The molecule `CCC1(CC)c2ccccc2-c2c1c1c(c3c2C(CC)(CC)c2cc(-c4cccs4)ccc2-3)C(CC)(CC)c2cc(N(c3ccccc3)c3ccccc3)ccc2-1` returned a fluorescence lifetime (in C1CCOC1) of 1.7 ns.
For `Fc1cccc(C2=Cc3ccc4ccccc4[n+]3[B-](F)(F)O2)c1`, the fluorescence lifetime (in ClC(Cl)Cl) stood at 1.11 ns.
For the molecule `Cc1cccc(-c2cccc(C)c2)c1`, the fluorescence lifetime (in C1CCCCC1) was 18 ns.
As for `c1ccc2cc(-n3cnc4ccccc43)ccc2c1`, the fluorescence lifetime reads like this: (in C1CCCCC1) 4.7 ns; (in CCOC(C)=O) 4.1 ns; (in CO) 5.1 ns.
As for `CCN(CC)c1ccc2c(-c3ccccc3C(=O)O)c3c([o+]c2c1)/C(=C/c1nc(-c2ccccc2)n2ccccc12)CCC3`, under “in ClCCl”, the fluorescence lifetime turned out to be 2.97 ns.
On to `c1ccc(-c2cnc3nn4ccccc4c3c2)cc1`, for which the fluorescence lifetime (in C1CCOC1) worked out at 4.7 ns.
As to `CC1=C(c2ccccc2)C(C)=[N+]2C1=C(c1c(-c3ccccn3)nc3ccccn13)c1c(C)cc(C)n1[B-]2(F)F`, the fluorescence lifetime (in ClCCl) is 6.2 ns.
Molecule `COc1ccc(-c2cc(-c3ccc(N(C)C)cc3)nc(-c3ccccc3)n2)cc1` had a fluorescence lifetime (in ClC(Cl)Cl) of 7.1 ns.
The molecule `Nc1cccc[nH+]1` displayed a fluorescence lifetime (in O) of 11.2 ns.
Regarding `c1ccc(-c2nn(-c3ccccc3)c3nc4ccccc4cc23)cc1`, the fluorescence lifetime was 17.9 ns (in C1CCCCC1); 21.2 ns (in C1CCOC1); 25.1 ns (in CC#N); 23.4 ns (in CC(C)=O); 19.7 ns (in CCCCCl); 18.6 ns (in CCCCOCCCC). Moreover, under “in CN(C)C=O”, the fluorescence lifetime amounted to 22 ns.
In the case of `Cc1cc(C)c(C2=C3C=CC=[N+]3[B-]3(F)Oc4cc(O)cc5c6ccc(C)cc6c6cc2n3c6c45)c(C)c1` (stereo unspecified), for the setting “in ClC(Cl)Cl”, the fluorescence lifetime worked out at 4 ns.
For the molecule `CCn1c2ccccc2c2cc3c(cc21)c1ccccc1n3CC`, under “in ClC(Cl)Cl”, the fluorescence lifetime is 2.9 ns.
In turn, `c1ccc(/C(=C(\c2ccccc2)c2cc(-c3ccccc3)ccc2-c2ccc(-c3ccccc3)cc2)c2cc(-c3ccccc3)ccc2-c2ccc(-c3ccccc3)cc2)cc1` yielded a fluorescence lifetime (in C1CCOC1) of 7.9 ns.
In the case of `COc1ccc2c(=O)c3c([nH]c2c1)-c1cc(Cl)ccc1NC3(C)C`, the fluorescence lifetime is 8.91 ns (in C1CCOC1); 9.32 ns (in CC#N); 9.93 ns (in CCCCO); 9.91 ns (in CCCO); 9.44 ns (in CCO); 8.48 ns (in CCOC(C)=O). Further, the fluorescence lifetime by setting is: (in CN(C)C=O) 10.4 ns; (in CO) 9.17 ns; (in CS(C)=O) 11.2 ns; (in Cc1ccccc1) 7.94 ns; (in ClC(Cl)(Cl)Cl) 5.41 ns; (in ClCCl) 9.85 ns. Moreover, the fluorescence lifetime is 6.93 ns (in O) and 8.01 ns (in c1ccccc1).
For the molecule `N#Cc1nc2c3ccc(-n4c5ccccc5c5ccccc54)cc3c3cc(-n4c5ccccc5c5ccccc54)ccc3c2nc1C#N`, the fluorescence lifetime (in O=P(c1ccccc1)(c1ccccc1)c1cccc(-c2cc(-n3c4ccccc4c4ccccc43)cc(-n3c4ccccc4c4ccccc43)c2)n1) was 29.5 ns.
Turning to `O=c1oc2ccccc2cc1/C=C/c1ccccc1`, the fluorescence lifetime (in CC#N) was found to be 2.48 ns.
Turning to `CCCCCCOc1ccc(N(c2ccc(OCCCCCC)cc2)c2ccc(-c3sc(-c4ccc(N(c5ccc(OCCCCCC)cc5)c5ccc(OCCCCCC)cc5)cc4)c4nc(-c5ccc(OC)cc5)c(-c5ccc(OC)cc5)nc34)cc2)cc1`, the fluorescence lifetime (in CN(C)C=O) stood at 0.57 ns.
Take `Nc1cccc2c1-c1ccccc1C2=O`: the fluorescence lifetime is, setting by setting: (in C1CCCCC1) 3.2 ns; (in CC#N) 4.2 ns; (in c1ccccc1) 9.3 ns.
Molecule `CCCCN1C(=O)c2ccc3c4ccc5c6c(ccc(c7ccc(c2c37)C1=O)c64)C(=O)N(CCCC)C5=O` returned a fluorescence lifetime (in ClC(Cl)Cl) of 3.8 ns.
Consider `c1ccc2ccccc2c1`, for which, under “in C1CCCCC1”, the fluorescence lifetime is 168 ns and 96 ns.
For the molecule `O=C([O-])c1ccc(C2=c3cc4c5c(c3Oc3c2cc2c6c3CCCN6CCC2)CCC[N+]=5CCC4)c(C(=O)[O-])c1`, the fluorescence lifetime (in CCO) was determined as 4.87 ns and the fluorescence lifetime (in O) worked out at 4.36 ns.
Consider `CCCCCCCCCCCCN1C(=O)c2c(c3ccc4cc(-c5ccccc5)c(OC)cc4c3c3c2ccc2cc(-c4ccccc4)c(OC)cc23)C1=O`, for which, where the note is “in ClCCl”, the fluorescence lifetime was determined as 6.16 ns.
Consider `O=[N+]([O-])c1ccc(-c2nc3c(c4c2-c2ccccc2CC4)-c2ccccc2CC3)cc1`, for which the fluorescence lifetime is 2.05 ns (in CC#N), 1.09 ns (in CS(C)=O) and 1.13 ns (in ClCCl).
As to `COc1ccc(C2=C3C=c4c(oc5ccccc45)=[N+]3[B-](F)(F)n3c2cc2c4ccccc4oc23)cc1`, the fluorescence lifetime stood at 4.1 ns (in C1CCCCC1), 4.22 ns (in CCOC(C)=O) and 4.14 ns (in CO).
For the setting “in ClCCl”, `c1ccc(C2=C3c4ccccc4C4=[N+]3[B-]3(Oc5ccccc54)Oc4ccccc4-c4c5ccccc5c2n43)cc1` (stereo unspecified) gave a fluorescence lifetime of 7 ns.
Under “in CC#N”, `COC(=O)[C@@]12N=N[C@@](C(=O)OC)(C3[C@H]1C3(C)C)[C@H]1[C@@H]2C1(C)C` (stereo partly specified) displayed a fluorescence lifetime of 101 ns.
Regarding `c1ccc(N(c2ccccc2)c2ccc(-c3ccc(-c4ccc(-c5cccs5)c5nsnc45)s3)cc2)cc1`, the fluorescence lifetime (in ClC(Cl)Cl) worked out at 6.62 ns.
The molecule `COC(=O)c1cc(=O)n(C)c2cc(-c3ccccc3OC)sc12` registered a fluorescence lifetime (in ClCCl) of 1.31 ns.
In the case of `C[Si](C)(C)c1ccc(-c2ccc(-c3ccc(-c4ccc(-c5ccc([Si](C)(C)C)cc5)cc4)c4nsnc34)cc2)cc1`, for the setting “in C1CCOC1”, the fluorescence lifetime turned out to be 5.4 ns.
For `COC(=O)c1ccc(C#Cc2ccc(N(C)C)cc2)cc1`, the fluorescence lifetime runs as follows: (in C1CCCCC1) 1.35 ns; (in C1CCOC1) 2.43 ns; (in C1COCCO1) 2.38 ns; (in CC1CCCO1) 2.68 ns; (in CC#N) 1.48 ns; (in CC(C)=O) 1.51 ns. In addition, the fluorescence lifetime reads like this: (in CC(C)CC(C)(C)C) 0.73 ns; (in CC(C)O) 1.32 ns; (in CCCCCCCCCCCCCCCC) 0.75 ns; (in CCCCCCCCCCCCCCCCCl) 0.92 ns; (in CCOC(C)=O) 2.47 ns; (in CCOCC) 0.959 ns. For the same molecule, the fluorescence lifetime reads like this: (in CN(C)C=O) 1.7 ns; (in CS(C)=O) 1.92 ns; (in Cc1ccccc1) 0.9 ns.
Molecule `CC1=C(c2ccccc2)C(C)=[N+]2C1=C(c1ccccc1)c1c(C)c(-c3ccccc3)c(C)n1[B-]2(F)F` displayed a fluorescence lifetime (in Cc1ccccc1) of 4.1 ns.
